Results reported in paper PMC10940605, “Design, synthesis and in vitro anticancer activity of some new lomefloxacin derivatives” (Scientific Reports, 2024).

How the values were obtained:
Experiment in all cases: NCI-60 SRB screen
Format in all cases: cell-based
HS 578T = conditions: Homo sapiens, 10^–5 Molar, read-out: Percent growth inhibition
Procedure, shortened: (§1)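 Single-dose screen at 10^−5 M; cells grown in RPMI 1640 with 2 mM L-glutamine and FBS for 24 h, then exposed to compound for 48 h at 37 °C, 5% CO2. TCA-fixed, SRB-stained, absorbance read at […]; percentage growth inhibition calculated against time-zero and control wells.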

HCT-116 = conditions: Homo sapiens; HCT-116, 10^–5 Molar; read-out: Percent growth inhibition
Procedure, shortened: as §1

EKVX = conditions: Homo sapiens, 10^–5 Molar, read-out: Percent growth inhibition
Procedure, shortened: as §1

HOP-92 = conditions: Homo sapiens; HOP-92, 10^–5 Molar; read-out: Percent growth inhibition
Procedure, shortened: as §1

ACHN = conditions: Homo sapiens, 10^–5 Molar, read-out: Percent growth inhibition
Procedure, shortened: (§2)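 After a 24 h pre-incubation, the cells received test compound at a single 10^−5 M dose and were incubated a further 48 h. Endpoint was SRB dye binding.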

OVCAR-5 = conditions: Homo sapiens; OVCAR-5, 10^–5 Molar; read-out: Percent growth inhibition
Procedure, shortened: as §2

A549/ATCC = conditions: Homo sapiens, 10^–5 Molar, read-out: Percent growth inhibition
Procedure, shortened: as §1

HCC-2998 = conditions: Homo sapiens; HCC-2998, 10^–5 Molar; read-out: Percent growth inhibition
Procedure, shortened: as §1

MDA-MB-231/ATCC = conditions: Homo sapiens, 10^–5 Molar, read-out: Percent growth inhibition
Procedure, shortened: as §2

U251 = conditions: Homo sapiens, U-251; U251, 10^–5 Molar; read-out: Percent growth inhibition
Procedure, shortened: as §1

melanoma SK-MEL-5 = conditions: Homo sapiens; SK-MEL-5, 10^–5 Molar; read-out: Percent growth inhibition
Procedure, shortened: as §2

LOX IMVI = conditions: Homo sapiens, 10^–5 Molar, read-out: Percent growth inhibition
Procedure, shortened: as §2

CAKI-1 = conditions: Homo sapiens; CAKI-1, 10^–5 Molar; read-out: Percent growth inhibition
Procedure, shortened: as §1

RXF 393 = conditions: Homo sapiens, 48 h; RXF 393, 10^–5 Molar; read-out: Percent growth inhibition
Procedure, shortened: as §1

SK-MEL-28 = conditions: Homo sapiens; SK-MEL-28, 10^–5 Molar; read-out: Percent growth inhibition
Procedure, shortened: as §1

MDA-MB-468 = conditions: Homo sapiens; MDA-MB-468, 10^–5 Molar; read-out: Percent growth inhibition
Procedure, shortened: as §1

SNB-19 = conditions: Homo sapiens; SNB-19, 10^–5 Molar; read-out: Percent growth inhibition
Procedure, shortened: as §2

OVCAR-4 = conditions: Homo sapiens; OVCAR-4, 10^–5 Molar; read-out: Percent growth inhibition
Procedure, shortened: as §1

BT-549 = conditions: Homo sapiens; BT-549, 10^–5 Molar; read-out: Percent growth inhibition
Procedure, shortened: as §1

NCI-H522 = conditions: Homo sapiens; NCI-H522, 10^–5 Molar; read-out: Percent growth inhibition
Procedure, shortened: as §1

NCI/ADR-RES = conditions: Homo sapiens, 10^–5 Molar, read-out: Percent growth inhibition
Procedure, shortened: as §2

NCI-H460 = conditions: Homo sapiens; NCI-H460, 10^–5 Molar; read-out: Percent growth inhibition
Procedure, shortened: as §1

SF-539 = conditions: Homo sapiens; SF-539, 10^–5 Molar; read-out: Percent growth inhibition
Procedure, shortened: as §1

UACC-62 = conditions: Homo sapiens; UACC-62, 10^–5 Molar; read-out: Percent growth inhibition
Procedure, shortened: as §2

Row | Structure (SMILES) | inhibition at 10 µM (HS 578T) [%] | inhibition at 10 µM (HCT-116) [%] | inhibition at 10 µM (EKVX) [%] | inhibition at 10 µM (HOP-92) [%] | inhibition at 10 µM (ACHN) [%] | inhibition at 10 µM (OVCAR-5) [%] | inhibition at 10 µM (A549/ATCC) [%] | inhibition at 10 µM (HCC-2998) [%] | inhibition at 10 µM (MDA-MB-231/ATCC) [%] | inhibition at 10 µM (U251) [%] | inhibition at 10 µM (melanoma SK-MEL-5) [%] | inhibition at 10 µM (LOX IMVI) [%] | inhibition at 10 µM (CAKI-1) [%] | inhibition at 10 µM (RXF 393) [%] | inhibition at 10 µM (SK-MEL-28) [%] | inhibition at 10 µM (MDA-MB-468) [%] | inhibition at 10 µM (SNB-19) [%] | inhibition at 10 µM (OVCAR-4) [%] | inhibition at 10 µM (BT-549) [%] | inhibition at 10 µM (NCI-H522) [%] | further results
1 | CCn1cc(C(=O)NN=Cc2cccnc2)c(=O)c2cc(F)c(N3CCNC(C)C3)c(F)c21 (stereo not drawn) [Compound 3d, 1-Ethyl-6,8-difluoro-7-(3-methylpiperazin-1-yl)-4-oxo-N'-(pyridin-3-ylmethylene)-1,4-dihydroquinoline-3-carbohydrazide] | 57.8 | 66.5 | 37.2 | 74.2 | 13.6 | 31.3 | 14.4 | 50.4 | 64.2 | 74.6 | 34.8 | 82 | 67.8 | 40.7 | 23.1 | 69.3 | 69.5 | 51.9 | 23.1 | 61.5 | inhibition at 10 µM (NCI/ADR-RES): 2.29%; inhibition at 10 µM (NCI-H460): 63%; inhibition at 10 µM (SF-539): 68.2%; inhibition at 10 µM (UACC-62): 48.6%
2 | CCn1cc(C(=O)NN=Cc2cccs2)c(=O)c2cc(F)c(N3CCNC(C)C3)c(F)c21 (stereo not drawn) [Compound 3e, 1-Ethyl-6,8-difluoro-7-(3-methylpiperazin-1-yl)-4-oxo-N'-(thiophen-2-ylmethylene)-1,4-dihydroquinoline-3-carbohydrazide] | 13.9 | 5.52 | 65.9 | 46.2 | 12.8 | 32.8 | 56 | 71.4 | 59 | 46.7 | 30.2 | 184 | 53.5 | 83.8 | 10.1 | 44.9 | 27.1 | 23.8 | 38.4 | 28.9 | inhibition at 10 µM (NCI/ADR-RES): 32.1%; inhibition at 10 µM (NCI-H460): 76.4%; inhibition at 10 µM (SF-539): 15.8%; inhibition at 10 µM (UACC-62): 3.47%
3 | CCn1cc(C(=O)NN=Cc2cccc(F)c2)c(=O)c2cc(F)c(N3CCNC(C)C3)c(F)c21 (stereo not drawn) [Compound 3b, 1-Ethyl-6,8-difluoro-N′-(3-fluorobenzylidene)-7-(3-methylpiperazin-1-yl)-4-oxo-1,4-dihydroquinoline-3-carbohydrazide] | 18.7 | 28.8 | 49.2 | 48.8 | 25.6 | 9.76 | 167 | 181 | 150 | 174 | 47.4 | 191 | 33.3 | 122 | 164 | 28.4 | 159 | 76.2 | 17.1 | 130 | inhibition at 10 µM (NCI/ADR-RES): 21.6%; inhibition at 10 µM (NCI-H460): 179%; inhibition at 10 µM (SF-539): 105%; inhibition at 10 µM (UACC-62): 35.2%
